In ChEMBL document CHEMBL1201862, “PubChem BioAssay data set” (2004):
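Step 1: Grow cells in 96-well plates. Step 2: Expose to compound for 48 hours at 5 concentrations. Step 3: Interpolate endpoints linearly; if unreached, use highest concentration. The concentration for 50% growth inhibition is given as GI50.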 Active and inactive are the calls of the source. No stated cut-off is given here; in the data, active = GI50 up to about 1.1 µM and inactive = higher.

Key:
Experiment in all cases: NCI tumour cell line growth inhibition, 48 h
A549 = test system: A549
ACHN = test system: ACHN
BT-549 = test system: BT-549
MOLT-4 = test system: MOLT-4
NCI-H226 = test system: NCI-H226
NCI-H23 = test system: NCI-H23
NCI-H460 = test system: NCI-H460
OVCAR-4 = test system: OVCAR-4
OVCAR-5 = test system: OVCAR-5
OVCAR-8 = test system: OVCAR-8
PC-3 = test system: PC-3
SF-295 = test system: SF-295
SK-MEL-2 = test system: SK-MEL-2
SK-OV-3 = test system: SK-OV-3
SNB-75 = test system: SNB-75
UACC-62 = test system: UACC-62
UO-31 = test system: UO-31
SK-MEL-5 = test system: SK-MEL-5
SN12C = test system: SN12C
UACC-257 = test system: UACC-257

Compound | GI50 (A549) | GI50 (ACHN) | GI50 (BT-549) | GI50 (MOLT-4) | GI50 (NCI-H226) | GI50 (NCI-H23) | GI50 (NCI-H460) | GI50 (OVCAR-4) | GI50 (OVCAR-5) | GI50 (OVCAR-8) | GI50 (PC-3) | GI50 (SF-295) | GI50 (SK-MEL-2) | GI50 (SK-OV-3) | GI50 (SNB-75) | GI50 (UACC-62) | GI50 (UO-31) | GI50 (SK-MEL-5) | GI50 (SN12C) | GI50 (UACC-257)
NS(=O)(=O)c1nnc(NS(=O)(=O)C(F)(F)F)s1 | > 100 µM (inactive) | > 100 µM (inactive) | > 100 µM (inactive) | > 100 µM (inactive) | > 100 µM (inactive) | 77.3 µM (inactive) | > 100 µM (inactive) | > 100 µM (inactive) | > 100 µM (inactive) | > 100 µM (inactive) | > 100 µM (inactive) | > 100 µM (inactive) | > 100 µM (inactive) | > 100 µM (inactive) | > 100 µM (inactive) | > 100 µM (inactive) | > 100 µM (inactive) |  |  | 
CCCOc1cc2c(cc1O)CC[C@@H]1[C@@H]2CC[C@]2(C)[C@@H](O)CC[C@@H]12 | 2.99 µM (inactive) | 5.2 µM (inactive) | 0.524 µM (active) | 0.946 µM (active) | 5.97 µM (inactive) | 3.37 µM (inactive) | 1.62 µM (inactive) | 15.1 µM (inactive) | 27.4 µM (inactive) | 4.98 µM (inactive) | 4.76 µM (inactive) | 2.76 µM (inactive) | 2.17 µM (inactive) | 3.04 µM (inactive) | 2.36 µM (inactive) | 1.2 µM (inactive) | 4.95 µM (inactive) | 2.12 µM (inactive) | 4.97 µM (inactive) | 5.04 µM (inactive)
COc1ccc2c(c1O)C13CCN(C)C(C2)C1CCC1(C3)OCCO1 (configuration not stated) | > 100 µM (inactive) | > 100 µM (inactive) | > 100 µM (inactive) | > 100 µM (inactive) | > 100 µM (inactive) | > 100 µM (inactive) | > 100 µM (inactive) | > 100 µM (inactive) | > 100 µM (inactive) | > 100 µM (inactive) | > 100 µM (inactive) | > 100 µM (inactive) | > 100 µM (inactive) | > 100 µM (inactive) | > 100 µM (inactive) | > 100 µM (inactive) | > 100 µM (inactive) | > 100 µM (inactive) | > 100 µM (inactive) | > 100 µM (inactive)
CC1(C)OCC2OC3([C@H](O)CCO)OC(C)(C)OC3C2O1 (some centres not stated) | > 100 µM (inactive) | > 100 µM (inactive) | > 100 µM (inactive) | > 100 µM (inactive) | > 100 µM (inactive) | > 100 µM (inactive) | > 100 µM (inactive) | > 100 µM (inactive) | > 100 µM (inactive) | > 100 µM (inactive) | > 100 µM (inactive) | > 100 µM (inactive) | > 100 µM (inactive) |  | > 100 µM (inactive) | > 100 µM (inactive) | > 100 µM (inactive) | > 100 µM (inactive) | > 100 µM (inactive) | > 100 µM (inactive)
CC12CC(C/C1=N/O)C(C)(C)C2 (configuration not stated) | > 100 µM (inactive) | > 100 µM (inactive) | > 100 µM (inactive) |  | > 100 µM (inactive) | > 100 µM (inactive) | > 100 µM (inactive) | > 100 µM (inactive) | > 100 µM (inactive) | > 100 µM (inactive) | > 100 µM (inactive) | > 100 µM (inactive) |  | > 100 µM (inactive) | > 100 µM (inactive) | > 100 µM (inactive) | > 100 µM (inactive) | > 100 µM (inactive) | > 100 µM (inactive) | > 100 µM (inactive)
COC(=O)/C=C(\C(=O)OC)c1cc(C)c2cc(C(C)C)ccc(C)c1-2 | 28.2 µM (inactive) | 25.6 µM (inactive) | 39.6 µM (inactive) | > 100 µM (inactive) | 53.3 µM (inactive) | 31.8 µM (inactive) | 40.7 µM (inactive) | 88.3 µM (inactive) | > 100 µM (inactive) | 55.1 µM (inactive) | 29 µM (inactive) | 41.7 µM (inactive) | 34.8 µM (inactive) | 85.9 µM (inactive) |  | 32.2 µM (inactive) | 20.5 µM (inactive) | 25.6 µM (inactive) | 53.3 µM (inactive) | 
Cn1cco/c1=N/c1ccc(Cl)c(Cl)c1 | > 10 µM (inactive) | > 10 µM (inactive) | > 10 µM (inactive) | > 10 µM (inactive) | > 10 µM (inactive) | > 10 µM (inactive) | > 10 µM (inactive) | > 10 µM (inactive) | > 10 µM (inactive) | > 10 µM (inactive) | > 10 µM (inactive) | > 10 µM (inactive) |  | > 10 µM (inactive) | > 10 µM (inactive) | > 10 µM (inactive) | > 10 µM (inactive) | > 10 µM (inactive) | > 10 µM (inactive) | > 10 µM (inactive)
Cc1cc(N)ccc1/N=N\c1ccc(S(=O)(=O)CCOS(=O)(=O)O)cc1 | 3.78 µM (inactive) | 3.24 µM (inactive) | 1.53 µM (inactive) | 0.23 µM (active) | 3.37 µM (inactive) | 0.7 µM (active) | 3.44 µM (inactive) | 10.5 µM (inactive) | 20.3 µM (inactive) | 0.356 µM (active) | 0.292 µM (active) | 2.63 µM (inactive) | 0.605 µM (active) |  | 1.04 µM (active) | 1.57 µM (inactive) | 2 µM (inactive) | 0.287 µM (active) | 0.463 µM (active) | 11.1 µM (inactive)
CCOC(=O)c1c(C)noc1/N=N/N(CCO)CCO | 36.8 µM (inactive) | 29 µM (inactive) | 35.9 µM (inactive) | 21 µM (inactive) | 23.6 µM (inactive) | 30.3 µM (inactive) | 27.9 µM (inactive) | 30.2 µM (inactive) | > 100 µM (inactive) | 38.3 µM (inactive) | 31.8 µM (inactive) | 23.7 µM (inactive) |  | 57.4 µM (inactive) | 10.2 µM (inactive) | 23.9 µM (inactive) | 25.5 µM (inactive) | 15.7 µM (inactive) | 37.5 µM (inactive) | 25.6 µM (inactive)
Nc1nc(Nc2ccc(Cl)cc2)sc1C(=O)c1c[nH]c2ccccc12 | 13.6 µM (inactive) | 12.4 µM (inactive) | 16.9 µM (inactive) |  | 19.3 µM (inactive) | 13.4 µM (inactive) | 6.92 µM (inactive) | 14.7 µM (inactive) | 21.1 µM (inactive) |  | 14 µM (inactive) |  | 14.6 µM (inactive) | 21.4 µM (inactive) | 5.66 µM (inactive) | 14.9 µM (inactive) | 15.4 µM (inactive) | 12 µM (inactive) | 15.5 µM (inactive) | 7.26 µM (inactive)
O=[N+]([O-])c1ccc(N/N=C2\C=CCCC2)c([N+](=O)[O-])c1 | > 100 µM (inactive) | 81.8 µM (inactive) | > 100 µM (inactive) | > 10 µM (inactive) | > 100 µM (inactive) | > 100 µM (inactive) | > 100 µM (inactive) | > 100 µM (inactive) | > 100 µM (inactive) | > 100 µM (inactive) | > 100 µM (inactive) | 31.3 µM (inactive) | > 100 µM (inactive) | > 100 µM (inactive) | 27.2 µM (inactive) | > 100 µM (inactive) | 39 µM (inactive) | > 100 µM (inactive) | > 100 µM (inactive) | > 100 µM (inactive)
COc1cc(OCCN(C)C)c2[nH]c(C(=O)N3CC(CCl)c4c3cc(N)c3ccccc43)cc2c1 (configuration not stated) | < 0.01 µM (active) | < 0.01 µM (active) | 0.0268 µM (active) |  | < 0.01 µM (active) | < 0.01 µM (active) | < 0.01 µM (active) | < 0.018 µM (active) | < 0.01 µM (active) | < 0.01 µM (active) | < 0.01 µM (active) | < 0.01 µM (active) | < 0.01 µM (active) | 0.0148 µM (active) | < 0.01 µM (active) | < 0.01 µM (active) | < 0.01 µM (active) | < 0.01 µM (active) | < 0.01 µM (active) | < 0.01 µM (active)
CC1(C)CC(=O)C2=C(C1)N(c1ccccc1)C1(O)C=CC(O)=C3C(=O)c4ccccc4C(=O)C321 (configuration not stated) | 67.5 µM (inactive) | 21.1 µM (inactive) | 26.9 µM (inactive) | 12.5 µM (inactive) | 18.7 µM (inactive) | 24.6 µM (inactive) | 26.3 µM (inactive) | 14.7 µM (inactive) | 42.8 µM (inactive) | 37.8 µM (inactive) | 26.2 µM (inactive) | 30 µM (inactive) | 27 µM (inactive) | 88.9 µM (inactive) | 22.5 µM (inactive) | 19.2 µM (inactive) | 19.1 µM (inactive) |  | 28.7 µM (inactive) | 33.8 µM (inactive)
Cc1ccc(-c2n[nH]c(=O)n2/N=C\c2ccccc2O)cc1 | > 100 µM (inactive) | > 100 µM (inactive) | > 100 µM (inactive) | > 100 µM (inactive) | > 100 µM (inactive) | > 100 µM (inactive) | > 100 µM (inactive) | > 100 µM (inactive) | > 100 µM (inactive) | > 100 µM (inactive) | > 100 µM (inactive) | > 100 µM (inactive) | > 100 µM (inactive) | 81.3 µM (inactive) | > 100 µM (inactive) |  | > 100 µM (inactive) | > 100 µM (inactive) | > 100 µM (inactive) | > 100 µM (inactive)
COC(=O)/C(C#N)=C(/NCc1ccccc1)Nc1ccccc1 | 45.1 µM (inactive) | > 100 µM (inactive) | > 100 µM (inactive) | 30.1 µM (inactive) | > 100 µM (inactive) | > 100 µM (inactive) | 77.4 µM (inactive) | 91 µM (inactive) | > 100 µM (inactive) | > 100 µM (inactive) | 46 µM (inactive) | 46.1 µM (inactive) | > 100 µM (inactive) | > 100 µM (inactive) | 37.3 µM (inactive) |  | 37.6 µM (inactive) | 64 µM (inactive) | > 100 µM (inactive) | 82.8 µM (inactive)
